The record followed here is patent US20230144838A1, “THERANOSTIC SYSTEM FOR DIRECTED DIFFUSION OF THERAPEUTIC AND IMAGING AGENTS TO CANCER CELLS” (UNIVERSITAT POLITÈCNICA DE VALÈNCIA, priority 2019, published 2023).

One may read the IC50 as the concentration at which inhibition is half-maximal.

The test relates to LNCaP (with membrane receptors FOLH1). Briefly: In vitro cytotoxic activity by MTT assay, LNCaP cells. In kind it is cell-based. Conditions: LNCaP human prostate adenocarcinoma cells, 72 hours, DTX equivalent concentration, n = 3, read-out: IC50 (mean ± SD).

Description: The in vitro cytotoxic activity of the theranostic system was determined by the 3-[4,5-dimethylthiazol-2-yl]-2,5-diphenyltetrazolium (MTT) bromide test. In these assays, the proliferation of living cells is determined via mitochondrial dehydrogenase activity: viable mitochondria reduce MTT by generating MTT-formazan crystals that are quantifiable by visible spectrophotometry.
Two types of human prostate adenocarcinoma cell lines were used for these assays: LNCaP (with membrane receptors FOLH1, PROTEIN DATA BANK ID FOLH1: 1Z8L) and PC3 (without FOLH1 receptors).
The cells are seeded in 96-well plates at a rate of 10,000 cells/well in both cases, 24 h before incorporating the nanoparticles. Aliquots of 3 mg ml-^1 of DTX in DMSO are prepared and kept at −20° C. When required, an aliquot is thawed, and working aliquots (100 μg/ml by dilution in enriched RPMI medium) are prepared. Alternatively, aliquots of 100 μg/mL DTX are prepared in enriched RPMI medium and kept at −20° C. until required. […]
At the end of the incubation period, 10 μl (5 mg/ml) of the MTT solution are added to each well and 4 hours later the formazan crystals are dissolved with isopropanol, and the absorbance at 570 nm is measured. The percentage of cell survival relative to untreated cells is determined and the values of IC50 from the curve DTX concentration-(%) live cells are calculated.

With `CC(=O)O[C@@]12CO[C@@H]1C[C@H](O)[C@@]1(C)C(=O)[C@H](O)C3=C(C)[C@@H](OC(=O)[C@H](O)[C@@H](NC(=O)OC(C)(C)C)c4ccccc4)C[C@@](O)([C@@H](OC(=O)c4ccccc4)[C@H]21)C3(C)C` [DTX, docetaxel], the half-maximal inhibitory concentration (IC50) was determined as 0.8 ± 0.2 µg/mL.
